From PMC6572184, “New γ-Halo-δ-lactones and δ-Hydroxy-γ-lactones with Strong Cytotoxic Activity” (Molecules, 2019)

What was measured:
Format in all cases: cell-based
[1] = tested on: Escherichia coli ATCC 8739; assay: Bactericidal activity, CFU counting method; conditions: E. coli ATCC 8739; for Number of CFU/mL (× 10^7): 18 h at 37 °C, Control 9.47, Control with DMSO 9.30
Protocol: (§1) The bacterial cultures: Escherichia coli ATCC 8739 and Staphylococcus aureus ATCC 65389 were grown on Luria–Bertani Agar for 18 h at 37 ^∘ C. The strain suspension was prepared in 0.85% saline, with an optical density equivalent to a 0.5 McFarland standard. Next, the following mixtures were prepared: 180 μ L of sterile enriched broth (BTL), 10 μ L of the bacterial suspension and 10 μ L of the tested compound (range 0.1–50 μ g/mL) solubilized in DMSO. As a negative control, only DMSO was added. As a sterility control, 180 μ L of BTL and 20 μ L saline were used. The microtiter plate was incubated at 37 ^∘ C for 18 h. The colony forming unit (CFU) method was used to evaluate the microbial population. The experiment was repeated three times. Gentamicin was used as the reference antibiotic.

[2] = tested on: Staphylococcus aureus ATCC 65389; assay: Bactericidal activity, CFU counting method; conditions: S. aureus ATCC 65389; for Number of CFU/mL (× 10^7): 18 h at 37 °C, Control 21.36, Control with DMSO 20.85; for less CFU/mL (reduction of the number of CFU/mL): versus control
Protocol: as §1

[3] = tested on: AGS cell lines (human gastric adenocarcinoma); assay: MTT reduction cytotoxicity assay; conditions: for mean percentage of viable cells ± SD: 24 h
Protocol: (§2) Cell cultures: The L929 mouse fibroblasts and human gastric adenocarcinoma cell line AGS were used for in vitro cytotoxicity assays. The cells were maintained under standard conditions (37 ^∘ C, 5% CO 2 ) in 25 cm^2 tissue culture flasks in RPMI-1640 medium supplemented with 10% fetal bovine serum (FBS) and antibiotics: 100 U/mL penicillin and 100 μ g/mL streptomycin. The cell suspension containing 10 ^8 cells in 1 mL, was obtained by treatment of confluent monolayers with 0.25% trypsin solution, washed and subcultured. Cell cultures were supplemented with medium to maintain them in log phase growth. The viability of the cells was assessed by exclusion of trypan blue dye.
(§3) Measurements of cellular metabolic activity and global growth inhibition: L929 cells were seeded into 96-well plates (2 × 10 ^5 cells/well) for 24 h, at 37 ^∘ C, 5% CO2 . Tested compounds 5a–c, 6a–c, 7a–c, 8a–c, 9b,c, 10b,c, 12a and 13a were diluted serially in RPMI-1640 medium in concentrations of 50, 20, 10, 5, 0.5 and 0.1 μ g/mL, added to the cells (100 μ L/well), and incubated under standard conditions for 24 h. The potential harmful effect of lactones on L929 and AGS cells was assessed by the ability of the cells to reduce 3-(4,5-dimethylthiazol-2-yl)-2,5-diphenyltetrazolium bromide (MTT) to formazan. The solution of MTT (5 mg/mL in PBS), was added to each well and the plates were incubated for 4h at 37 ^∘ C. Formazan crystals were dissolved with acidic isopropanol (0.1 M HCl in absolute isopropanol) and the plates were read in a plate reader (Victor 2) at 570 nm. The percentage of MTT reduction was calculated by comparing the absorbance of treated cells to that of untreated control cells. Results are expressed as the mean percentage of viable cells ± standard deviation (SD) of four independent experiments. Statistical significance was accepted at a p-value < 0.05.

[4] = tested on: L929 cell lines (mouse fibroblasts); assay: MTT reduction cytotoxicity assay; conditions: 24 h
Protocol: as §2, §3

Structure (SMILES)	Number of CFU/mL (× 10^7) [1]	Number of CFU/mL (× 10^7) [2]	IC50 [3]	mean percentage of viable cells ± SD ([3]; 0.1 μg/mL)	mean percentage of viable cells ± SD ([3]; 0.5 μg/mL)	mean percentage of viable cells ± SD ([3]; 5 μg/mL)	mean percentage of viable cells ± SD ([3]; 10 μg/mL)	mean percentage of viable cells ± SD ([3]; 20 μg/mL)	mean percentage of viable cells ± SD ([3]; 50 μg/mL)	mean percentage of viable cells ± SD ([4]; 0.1 μg/mL)	mean percentage of viable cells ± SD ([4]; 0.5 μg/mL)	mean percentage of viable cells ± SD ([4]; 5 μg/mL)	mean percentage of viable cells ± SD ([4]; 10 μg/mL)	mean percentage of viable cells ± SD ([4]; 20 μg/mL)	mean percentage of viable cells ± SD ([4]; 50 μg/mL)	less CFU/mL (reduction of the number of CFU/mL) [2]	less CFU/mL (reduction of the number of CFU/mL) ([1]; versus control)
CC1CC(=O)OC(c2ccc(F)cc2)C1Br (stereo not drawn) [7c, Trans,trans-5-bromo-6-(4-fluorophenyl)-tetrahydro-4-methylpyran-2-one]	6.52 × 10^7 CFU/mL	6.42 × 10^7 CFU/mL	3500 nM	63 ± 0.03%	49 ± 0.06%	42 ± 0.02%	25 ± 0.12%	18 ± 0.10%	8 ± 0.07%	27 ± 0.08%	21 ± 0.08%	17 ± 0.02%	11 ± 0.08%	5 ± 0.05%	1 ± 0.03%	–	–
CC1CC(=O)OC(c2cccc3ccccc23)C1Cl (mixture of isomers) [6a, Cis,trans-5-chloro-tetrahydro-4-methyl-6-(naphthalen-1-yl)pyran-2-one]	7.58 × 10^7 CFU/mL	5.20 × 10^7 CFU/mL	1900 nM	35 ± 0.06%	28 ± 0.07%	23 ± 0.09%	19 ± 0.01%	8 ± 0.09%	8 ± 0.05%	15 ± 0.03%	11 ± 0.08%	9 ± 0.15%	7 ± 0.07%	6 ± 0.03%	2 ± 0.09%	–	–
CC1CC(=O)OC(c2ccc(F)cc2)C1Cl (stereo not drawn) [5c, Trans,trans-5-chloro-6-(4-fluorophenyl)-tetrahydro-4-methylpyran-2-one]	9.46 × 10^7 CFU/mL	14.83 × 10^7 CFU/mL	600 nM	54 ± 0.12%	47 ± 0.12%	44 ± 0.10%	34 ± 0.09%	21 ± 0.08%	10 ± 0.12%	26 ± 0.03%	21 ± 0.15%	14 ± 0.09%	10 ± 0.03%	4 ± 0.06%	2 ± 0.12%	–	–
CC1CC(=O)OC(c2cccc3ccccc23)C1Br (mixture of isomers) [8a, Cis,trans-5-bromo-tetrahydro-4-methyl-6-(naphthalen-1-yl)pyran-2-one]	7.14 × 10^7 CFU/mL	9.29 × 10^7 CFU/mL	1600 nM	61 ± 0.10%	47 ± 0.06%	39 ± 0.09%	25 ± 0.05%	17 ± 0.07%	9 ± 0.09%	23 ± 0.03%	19 ± 0.03%	14 ± 0.03%	7 ± 0.06%	4 ± 0.02%	1 ± 0.15%	83%	–
CC1CC(=O)OC(c2ccccc2)C1Br (mixture of isomers) [8b, Cis,trans-5-bromo-tetrahydro-4-methyl-6-phenylpyran-2-one]	5.83 × 10^7 CFU/mL	9.04 × 10^7 CFU/mL	1900 nM	44 ± 0.15%	35 ± 0.10%	31 ± 0.02%	28 ± 0.09%	17 ± 0.10%	11 ± 0.05%	24 ± 0.03%	17 ± 0.08%	15 ± 0.03%	8 ± 0.05%	4 ± 0.08%	1 ± 0.02%	–	–
CC1CC(=O)OC(c2ccccc2)C1Cl (mixture of isomers) [6b, Cis,trans-5-chloro-tetrahydro-4-methyl-6-phenylpyran-2-one]	6.32 × 10^7 CFU/mL	3.58 × 10^7 CFU/mL	4400 nM	42 ± 0.02%	35 ± 0.02%	28 ± 0.03%	21 ± 0.02%	14 ± 0.07%	8 ± 0.06%	32 ± 0.07%	27 ± 0.12%	25 ± 0.02%	16 ± 0.03%	4 ± 0.15%	2 ± 0.05%	78–83%	–
CC1CC(=O)OC(c2ccc(F)cc2)C1Cl (mixture of isomers) [6c, Cis,trans-5-chloro-6-(4-fluorophenyl)-tetrahydro-4-methylpyran-2-one]	2.06 × 10^7 CFU/mL	7.39 × 10^7 CFU/mL	2900 nM	49 ± 0.10%	37 ± 0.05%	28 ± 0.06%	16 ± 0.10%	14 ± 0.07%	6 ± 0.08%	24 ± 0.03%	22 ± 0.05%	18 ± 0.12%	9 ± 0.05%	4 ± 0.08%	2 ± 0.02%	83%	70–78%
CC1CC(=O)OC(c2ccc(F)cc2)C1Br (mixture of isomers) [8c, Cis,trans-5-bromo-6-(4-fluorophenyl)-tetrahydro-4-methylpyran-2-one]	8.87 × 10^7 CFU/mL	3.60 × 10^7 CFU/mL	2500 nM	69 ± 0.15%	58 ± 0.10%	43 ± 0.10%	18 ± 0.07%	11 ± 0.03%	10 ± 0.09%	25 ± 0.03%	20 ± 0.08%	15 ± 0.03%	11 ± 0.03%	5 ± 0.02%	1 ± 0.05%	78–83%	–
